# Experimental data taken from publication PMC5895880 (Frontiers in Pharmacology, 2018).
# How the values were obtained:
# mGluR5 [1] = biological target: T1, mGluR5 (Rattus norvegicus, UniProt P31424); experiment: Calcium mobilization (intracellular calcium levels) in primary cultures of rat cortical astrocytes; format: cell-based; conditions: for EC50: GET73 0 (absence)
# Method: The experiments have been performed on primary cultures of rat cortical astrocytes. These cells express mGlu5Rs ([Zhang et al., 2005]).
# Primary cultures of cerebral cortical astrocytes were obtained from newborn rats (1 or 2 days old). Briefly, cerebral cortices were removed and dissociated by mild trypsinization at 37°C, followed by mechanical trituration to obtain single cells. Cells were suspended in the culture medium [Gibco® DMEM, 5% inactivated fetal bovine serum (Thermo-Fisher Scientific, Waltham, MA, United States), 100 IU/ml penicillin, and 100 μg/ml streptomycin (all from Sigma-Aldrich, Milan, Italy)] and then seeded in 75-cm^2 flasks at a density of 3 × 10^6 cells/flask. The cells were incubated at 37°C in a humidified atmosphere, 5% CO2/95% air. The culture medium was replaced after 24 h and again twice weekly until astrocytes were grown to form a monolayer firmly attached to the bottom of the flask (12 or 14 days after dissection). At cell confluence, flasks were vigorously shaken to separate astrocytes (which remained adherent in the bottom of the flasks) from microglia and oligodendrocytes (which floated on the supernatant) ([Tomasini et al., 2015]). Collected astrocytes were counted and then plated in poly-L-lysine at a density of 50,000 cells/well or 96-well plates black, clear bottom plates (Corning®; Sigma-Aldrich, Milan, Italy).
# Subsequently 100 μl/well of the same buffer were added for 10 min. […] After placing cell culture and compound plates into the FlexStation II (Molecular Devices, Sunnyvale, CA, United States), the on-line additions were carried out in a volume of 50 μl /well and fluorescence changes were continuously measured for 2 min at 37°C.
# (§1) EC50 values were calculated using non-linear regression [curve fit, log(agonist) vs. response, variable slope, four parameters]. Statistical analysis (F-test) has been performed by using GraphPad Prism 6.0 (GraphPad Software Inc., San Diego, CA, United States). Statistical differences between group means for EC50 values were also assessed by ANOVA followed by Tukey’s multiple comparisons test. Data are reported as mean ± SEM of three independent experiments. A p-value < 0.05 was considered statistically significant.
# mGluR5 [2] = biological target: T1, mGluR5; experiment: Inositol phosphate (phosphatidylinositol) turnover in rat hippocampus slices; format: cell-based; conditions: for Effect on L-quisqualate concentration-response curve, phosphatidylinositol turnover / Effect on CHPG (10 mM)-induced increase in phosphatidylinositol turnover / Effect on glutamate concentration-response curve, phosphatidylinositol turnover / EC50: rat hippocampus slices; for EC50: read-out: EC50 of L-quisqualate, phosphatidylinositol turnover
# Method: The experiments have been performed on rat hippocampus slices. This preparation expresses mGlu5Rs ([Zhang et al., 2005]; [Purgert et al., 2014]).
# On the day of the experiment, the animals were euthanized, their brain promptly isolated and 400 μm thick slices (15–20 mg each) were obtained from both the left and right hippocampi, by using a McIlwain tissue Chopper fresh tissue. The tissue was then allowed to equilibrate for 20 min at room temperature in Krebs’ solution (composition in mM: NaCl 118; KC1 4.4; CaC1_2 1.2; MgS0_4 1.2; KH2P0_4 1.2; NaHC0_3 25; glucose 10) and gassed with a mixture of 95% O2 plus 5% CO2 ([Ferraro et al., 2011]).
# Slices were placed in test tubes containing 0.3 ml of oxygenated Krebs solution with myo-[^3H]inositol 0.3 μM (NEN, Boston, MA, United States). […] The reaction was stopped by washing each slice in ice cold Krebs solution containing LiCl 10 mM and by plunging it in 0.94 ml of chloroform-methanol (1:2 v/v). After 10 min, 310 μl of chloroform and 310 μl of water were added and the tubes were shaken for 20 min. The separation of [^3H]inositol phosphates was performed by ion-exchange chromatography on AG 1-X8 resin, 200–400 mesh (Bio-Rad, Hercules, CA, United States), using different elution solutions. The collected IP3-containing fraction was mixed with Safety-Solve cocktail (RPI, Mount Prospect, IL, United States) and the radioactivity was measured by scintillation counting.
# as §1
# mGluR5 [3] = biological target: T1, mGluR5; experiment: pCREB (Ser133) levels in primary cultures of rat cortical neurons; format: cell-based; conditions: for EC50: rat cerebral cortex neurons
# Method: The experiments have been performed on primary cultures of rat cortical neurons. These cells express mGlu5Rs ([Koga et al., 2010]).
# Primary cultures of cerebral cortical neurons were prepared from 1-day-old rats. Cortices free of meninges were dissociated in 0.025% (w/v) trypsin at 37°C followed by mechanical repeated gentle pipetting through wide- and narrow-bore fire-polished Pasteur pipettes in culture medium [Neurobasal medium (Gibco, Grand Island, NY, United States) supplemented with 0.1 mM glutamine (Sigma-Aldrich, Milan, Italy), 10 μg/ml gentamicin (Sigma-Aldrich, Milan, Italy) and 2% B-27® Supplement (50X), serum free (Gibco, Grand Island, NY, United States)]. Cells were counted and then plated on poly-L-lysine (5 μg/ml)-coated multiwells. Cytosine arabinoside (10 μM; Sigma-Aldrich, Milan, Italy) was added within 24 h of plating to prevent glial cell proliferation. After 8 days of in vitro incubation (days in vitro: DIV), cultures were used for experiments.
# pCREB measurement was performed with the pCREB (Ser133) Assay kit (PerkinElmer Italy, Milan). Briefly, cortical neurons were seeded in 96 well tissue culture plates at a density of 4,000 cells/well and incubated at 37°C overnight. […] The lysates were transferred to a 96-well ½AreaPlate^TM for the assay. The Acceptor Mix was added for 1 h at room temperature and the Donor mix was added to wells under subdue light and incubate for 1 h at room temperature. At the end of this period, raw “AlphaScreen Signal counts” were measured by an Alpha Technology®-compatible plate reader, using standard AlphaLISA settings (excitation 680 nm, emission 615 nm).
# as §1
# [4] = system: dopamine, serotonin, GABA, ionotropic glutamate receptors, dopamine and serotonin reuptake systems; design: method as in Loche et al., 2012; conditions: ref Loche et al., 2012; cited from earlier work
# hippocampal neurons = system: hippocampal neurons; design: method as in Tomasini et al., 2016; conditions: hippocampal neurons exposed to 0.1 to 10 μM; ref Tomasini et al., 2016; cited from earlier work
# [5] = ref Haass-Koffler et al., cited from earlier work
# alcohol intake = system: alcohol intake; design: method as in Loche et al., 2012; Ferraro et al., 2013; conditions: preclinical studies; ref Loche et al., 2012; Ferraro et al., 2013; cited from earlier work
# mGluR5 [6] = biological target: T1, mGluR5; design: method as in Bradley et al., 2011; conditions: ref Bradley et al., 2011; cited from earlier work
# mGluR5 [7] = biological target: T1, mGluR5; design: method as in Bradley et al., 2011; conditions: ref Bradley et al., 2011; cited from earlier work; remark: listed apart in the source
# mGluR5 [8] = system: mGluR5; design: method as in Nickols et al., 2016; conditions: ref Nickols et al., 2016; cited from earlier work
# mGluR5 [9] = system: mGluR5; design: method as in Nickols et al., 2016; conditions: ref Nickols et al., 2016; cited from earlier work; remark: listed apart in the source
# T1 sequence (P31424 21-875 limits assumed): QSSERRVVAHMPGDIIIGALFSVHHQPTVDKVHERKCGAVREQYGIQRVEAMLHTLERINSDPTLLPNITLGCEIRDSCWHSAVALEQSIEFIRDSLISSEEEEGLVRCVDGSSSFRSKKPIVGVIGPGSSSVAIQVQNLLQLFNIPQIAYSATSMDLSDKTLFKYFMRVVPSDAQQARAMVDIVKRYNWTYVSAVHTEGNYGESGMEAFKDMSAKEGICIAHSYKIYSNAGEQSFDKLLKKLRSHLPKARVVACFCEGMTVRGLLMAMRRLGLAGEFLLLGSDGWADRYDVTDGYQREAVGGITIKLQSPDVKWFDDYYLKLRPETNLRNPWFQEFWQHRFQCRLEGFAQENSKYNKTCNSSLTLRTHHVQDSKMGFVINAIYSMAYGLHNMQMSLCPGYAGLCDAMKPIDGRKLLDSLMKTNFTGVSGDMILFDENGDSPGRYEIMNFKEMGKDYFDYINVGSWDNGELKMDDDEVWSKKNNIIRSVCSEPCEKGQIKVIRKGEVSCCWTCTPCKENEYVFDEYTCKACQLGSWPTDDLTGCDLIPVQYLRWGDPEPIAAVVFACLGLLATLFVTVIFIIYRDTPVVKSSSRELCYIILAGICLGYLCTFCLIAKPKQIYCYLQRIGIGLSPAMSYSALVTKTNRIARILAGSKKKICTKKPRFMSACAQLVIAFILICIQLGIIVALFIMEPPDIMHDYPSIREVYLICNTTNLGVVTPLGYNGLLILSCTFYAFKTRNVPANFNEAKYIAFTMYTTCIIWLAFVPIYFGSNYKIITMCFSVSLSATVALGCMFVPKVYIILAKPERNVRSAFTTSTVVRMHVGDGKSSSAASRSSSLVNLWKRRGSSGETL
structure (smiles),measurement,setting,value
"NC(C(=O)O)c1cc(O)ccc1Cl (racemic) [CHPG, (RS)-2-Chloro-5-hydroxyphenylglycine]",EC50,"mGluR5 [1]; read-out: EC50 of CHPG, intracellular calcium levels",1300 ± 90 µM
same,Phosphatidylinositol turnover,"mGluR5 [2]; CHPG at the higher concentration tested (10 mM), rat hippocampal slices, p < 0.05",127 ± 4 % of basal levels
same,EC50,"mGluR5 [3]; GET73 0 (absence), read-out: EC50 of CHPG, pCREB levels",1000 ± 90 µM
same,EC50,"mGluR5 [3]; in the presence of GET73 0.1 nM, read-out: EC50 of CHPG, pCREB levels",1000 ± 80 µM
same,EC50,"mGluR5 [3]; in the presence of GET73 1 nM, read-out: EC50 of CHPG, pCREB levels",900 ± 40 µM
same,EC50,"mGluR5 [3]; in the presence of GET73 10 nM, read-out: EC50 of CHPG, pCREB levels",1400 ± 120 µM
same,EC50,"mGluR5 [3]; in the presence of GET73 100 nM, read-out: EC50 of CHPG, pCREB levels",5000 ± 290 µM
"COCCCC(=O)NCc1ccc(C(F)(F)F)cc1 [GET73, N-[4-(trifluoromethyl)benzyl]-4-methoxybutyramide]","Effect on CHPG concentration-response curve, intracellular calcium",mGluR5 [1]; GET73 0.1 nM–10 μM,significant rightward shift
same,"Effect on L-quisqualate concentration-response curve, intracellular calcium",mGluR5 [1]; GET73 0.1 nM–10 μM,failed to significantly modify
same,"Effect on glutamate concentration-response curve, intracellular calcium",mGluR5 [1]; GET73 10 nM–10 μM,significant rightward shift
same,"Effect on glutamate concentration-response curve, intracellular calcium",mGluR5 [1]; GET73 0.1 and 1 nM,ineffective
same,Agonistic effect on intracellular calcium levels (calcium transient),"mGluR5 [1]; GET73 alone, 0.1 nM–10 μM",ineffective
same,"Effect on L-quisqualate concentration-response curve, phosphatidylinositol turnover",mGluR5 [2]; GET73 10 nM–10 μM,significant rightward shift
same,Effect on CHPG (10 mM)-induced increase in phosphatidylinositol turnover,"mGluR5 [2]; GET73 100 nM, 1 μM and 10 μM",significant reduction
same,"Effect on glutamate concentration-response curve, phosphatidylinositol turnover",mGluR5 [2]; GET73 100 nM–10 μM,significant rightward shift
same,"Effect on L-quisqualate concentration-response curve, phosphatidylinositol turnover",mGluR5 [2]; GET73 0.1 and 1 nM,ineffective
same,"Effect on glutamate concentration-response curve, phosphatidylinositol turnover",mGluR5 [2]; GET73 0.1 and 1 nM,ineffective
same,Effect on CHPG (10 mM)-induced increase in phosphatidylinositol turnover,mGluR5 [2]; GET73 0.1–10 nM,ineffective
same,Agonistic effect on phosphatidylinositol turnover,"mGluR5 [2]; GET73 alone, 0.1 nM–100 μM, rat hippocampal slices",failed to modify
same,"Effect on glutamate concentration-response curve, pCREB","mGluR5 [3]; GET73 10 nM–10 μM, rat cortical neurons",significant rightward shift
same,"Effect on CHPG concentration-response curve, pCREB","mGluR5 [3]; GET73 100 nM–10 μM, rat cortical neurons",significant rightward shift
same,"Effect on glutamate concentration-response curve, pCREB","mGluR5 [3]; GET73 0.1 and 1 nM, rat cortical neurons",ineffective
same,"Effect on CHPG concentration-response curve, pCREB","mGluR5 [3]; GET73 0.1–10 nM, rat cortical neurons",ineffective
same,"Effect on L-quisqualate concentration-response curve, pCREB","mGluR5 [3]; GET73 0.1–100 nM, rat cortical neurons",ineffective
same,"Effect on L-quisqualate concentration-response curve, pCREB","mGluR5 [3]; GET73 1 and 10 μM, rat cortical neurons",significant rightward shift
same,Agonistic effect on pCREB levels,"mGluR5 [3]; GET73 alone, 0.1 nM–10 μM, rat cortical neurons",ineffective
same,Affinity for a series of biological targets,[4],did not show affinity
same,Neurotoxicity,hippocampal neurons,no signs of neurotoxicity
same,Safety and tolerability,"[5]; Phase 1 clinical studies, healthy volunteers and alcohol-dependent patients, 2017a,b",safe and well-tolerated
same,CNS side effects,"[5]; two Phase I clinical trials in healthy volunteers and ongoing Phase 1b/2a study in alcohol dependent subjects, 2017a",did not induce any CNS side effects
same,Alcohol intake,alcohol intake,reduce alcohol intake
"N[C@@H](Cn1oc(=O)[nH]c1=O)C(=O)O [L-quisqualate, (L)-(+)-α-Amino-3,5-dioxo-1,2,4-oxadiazolidine-2-propanoic acid]",EC50,"mGluR5 [1]; read-out: EC50 of L-quisqualate, intracellular calcium levels",0.0031 ± 0.00036 µM
same,EC50,mGluR5 [2]; GET73 0 (absence),40 ± 2.37 µM
same,EC50,mGluR5 [2]; in the presence of GET73 0.1 nM,33 ± 1.57 µM
same,EC50,mGluR5 [2]; in the presence of GET73 1 nM,40 ± 1.44 µM
same,EC50,mGluR5 [2]; in the presence of GET73 10 nM,110 ± 9.5 µM
same,EC50,mGluR5 [2]; in the presence of GET73 100 nM,200 ± 11.1 µM
same,EC50,mGluR5 [2]; in the presence of GET73 1 μM,320 ± 15.7 µM
same,EC50,mGluR5 [2]; in the presence of GET73 10 μM,200 ± 12.6 µM
same,EC50,"mGluR5 [3]; GET73 0 (absence), read-out: EC50 of L-quisqualate, pCREB levels",0.0088 ± 0.00068 µM
same,EC50,"mGluR5 [3]; in the presence of GET73 0.1 nM, read-out: EC50 of L-quisqualate, pCREB levels",0.009 ± 0.00091 µM
same,EC50,"mGluR5 [3]; in the presence of GET73 1 nM, read-out: EC50 of L-quisqualate, pCREB levels",0.0074 ± 0.00066 µM
same,EC50,"mGluR5 [3]; in the presence of GET73 10 nM, read-out: EC50 of L-quisqualate, pCREB levels",0.0085 ± 0.00052 µM
same,EC50,"mGluR5 [3]; in the presence of GET73 100 nM, read-out: EC50 of L-quisqualate, pCREB levels",0.011 ± 0.00096 µM
same,EC50,"mGluR5 [3]; in the presence of GET73 1 μM, read-out: EC50 of L-quisqualate, pCREB levels",0.022 ± 0.00172 µM
same,EC50,"mGluR5 [3]; in the presence of GET73 10 μM, read-out: EC50 of L-quisqualate, pCREB levels",0.016 ± 0.00044 µM
COc1cccc(C#Cc2ccc(C)cn2)c1 [M-5MPEP],Inhibition of agonist-stimulated [3H]IP accumulation,mGluR5 [6],partially inhibiting
same,Inhibition of agonist-stimulated Ca++ oscillations,mGluR5 [7],completely blocking
CCN(CC)C(=O)c1ccc(C#Cc2cccc(F)c2)cn1 [VU0477573],Inhibition of agonist-mediated intracellular Ca++ release,mGluR5 [8],only partially inhibited
same,Inhibition of ERK1/2 phosphorylation,mGluR5 [9],fully inhibited
